No end group written: not given here.
How the values were obtained:
[1] = tested on: bombesin binding sites on human colorectal cancer tissue (GRP-preferring subtype); test: Radioligand displacement binding on human colorectal cancer membranes; details: for Radioligand displacement achieved over the concentration range: [125I]Tyr4-BBS; for Radioligand displacement achieved over the concentration range / Relative affinity for the binding site (GRP, BBS >> NMB): five binding site-positive tumours; for Relative affinity for the binding site (GRP, BBS >> NMB): displacement of [125I]Tyr4-bombesin
human colorectal cancers = tested on: human colorectal cancers; set-up: method as in Radulovic et al., 1992; details: ref Radulovic et al., 1992; cited from earlier work
[2] = tested on: mouse colon cancer cell line MC26; set-up: method as in Narayan et al., 1990; details: [3H]thymidine incorporation and MTT assays; ref Narayan et al., 1990; cited from earlier work
matched mucosa = tested on: matched mucosa; set-up: method as in Radulovic et al., 1992; details: ref Radulovic et al., 1992; cited from earlier work
[3] = competitor 1 x 10-11 to 1 x 10^-6 M

Row | Substance | Radioligand displacement achieved over the concentration range [1, 3] | Relative affinity for the binding site (GRP, BBS >> NMB) [1] | Percentage of human colorectal cancers expressing bombesin binding sites (human colorectal cancers) | Effect on growth [2] | Matched mucosa binding site positive (matched mucosa) | IC50 for displacement of [125I]Tyr4-BBS ([1]; membrane preparations, approximately 200 pM radioligand, competitor 1 x 10-11 to 1 x 10^-6 M, six tubes per point, mean (± s.e.m.) of the five binding site-positive cancers) | 50% displacement of specific binding: number of tumours in which achieved ([1]; of the five binding site-positive tumours, competitor 1 x 10-11 to 1 x 10^-6 M)
1 | gastrin-releasing peptide (VPLPAGGGTVLTKMYPRGNHWAVGHLM; ends and bridges not checked; UniProt P07492 24-50, looked up) [GRP, mammalian bombesin-like peptide (Bachem)] | Full radioligand displacement was achieved | GRP, BBS >> NMB | – | – | – | – | –
2 | bombesin [BBS] | Full radioligand displacement was achieved | GRP, BBS >> NMB | 40% | stimulated growth | none of the matched mucosa were binding site positive | – | –
3 | neuromedin B [NMB] | – | GRP, BBS >> NMB | – | – | – | > lOOO | only achieved in two of the five binding site-positive tumours

Source: PMC2033785, “High-affinity binding sites for gastrin-releasing peptide on human colorectal cancer tissue but not uninvolved mucosa” (British Journal of Cancer, 1995)
